Measurements from US20220135622A1, “ANTIBACTERIAL PEPTIDES AND METHODS OF USE” (priority 2019, published 2022).
≈ marks a conversion by molar mass, not a printed value. Square brackets hold non-standard residues; d marks the D form. Peptide text beside a SMILES is read from it. Bip = N[C@@H](Cc1ccc(-c2ccccc2)cc1)C(=O)O; hhPhe = N[C@@H](CCCc1ccccc1)C(=O)O; NMeF = CN[C@@H](Cc1ccccc1)C(=O)O; hPhe = N[C@@H](CCc1ccccc1)C(=O)O; NMeM = CN[C@@H](CCSC)C(=O)O; Pip = O=C(O)[C@@H]1CCCCN1; NMeA = CN[C@@H](C)C(=O)O; Dap = NC[C@H](N)C(=O)O; Aib = CC(C)(N)C(=O)O

Test system: E. coli BW25113
Type: cell-based, Escherichia coli
Conditions: BW25113
Procedure: Bacterial growth conditions. LB or Mueller Hinton II cation-adjusted broth (MHB II, BBL 212322) was prepared according to manufacturer's instructions and supplemented with arabinose at 0.02% for overnight growth or at indicated concentrations in the description of the figures. Bacterial cultures were grown at 37° C. When appropriate, media was supplemented with kanamycin (50 μg/mL), carbenicillin (50 μg/mL), chloramphenicol (12.5 or 25 μg/mL), hygromycin (200 μg/mL), and/or gentamicin (10 μg/mL).
Peptide sensitivity and MIC assays. Lyophilized peptides (Smartox Biotechnology, CPC Scientific. ABclonal) were solubilized to 10 mM in Tris buffer, pH 8, prior to making a 2-fold dilution series in MHBII cation adjusted broth with highest final assay concentration of 400-800 μM. Bacteria were grown to log phase and added to final OD600˜0.001. The final EDTA concentration was 0.5 mM for E. coli strains and 0.125 mM for USA300. The final volume of 10 μL/well in a 384 well black, clear bottom plate (Corning) was spun <1 min at <250×g and then incubated at 37° C. After 4 h, an equal volume (10 μL) of BacTiter-Glo™ (Promega) was added to each well and luminescence was read after 5 min on an EnVision plate reader (PerkinElmer). To measure the minimal inhibitory concentrations (MICs), bacteria from fresh overnight plates or log phase cultures were diluted with or without EDTA and peptides as described above to final OD600˜0.0002. Plates were incubated at 37° C. for 20 h before measuring OD600 with an EnVision plate reader.

Going from CSCC[C@H](NC(=O)[C@H](CN)NC(=O)[C@H](CCCc1ccccc1)NC(=O)[C@@H]1CCCN1C(=O)[C@H](CCCNC(=N)N)NC(C)=O)C(=O)N[C@@H](CCCNC(=N)N)C(=O)N[C@@H](CCCNC(=N)N)C(=O)N[C@@H](Cc1c[nH]c2ccccc12)C(=O)N[C@@H](CC(C)C)C(=O)N[C@@H](C)C(=O)N[C@@H](CCCCN)C(=O)N[C@@H](CCCNC(=N)N)C(=O)NCC(=O)N[C@@H](CC(C)C)C(N)=O [compound 227] (Ac-RP[hhPhe][Dap]MRRWLAKRGL-NH2) to CSCC[C@H](NC(=O)[C@H](CN)NC(=O)[C@H](Cc1ccc(O)cc1)NC(C)=O)C(=O)N1CCC[C@H]1C(=O)N[C@@H](Cc1ccccc1)C(=O)N[C@@H](CCCNC(=N)N)C(=O)N[C@@H](CCCNC(=N)N)C(=O)N[C@@H](Cc1ccccc1)C(=O)N[C@@H](CC(C)C)C(=O)N[C@@H](CCC(=O)O)C(=O)N[C@@H](CCCCN)C(=O)N[C@@H](Cc1c[nH]c2ccccc12)C(=O)NCC(=O)N[C@@H](CC(C)C)C(=O)N[C@@H](CC(C)C)C(=O)N[C@@H](CCCNC(=N)N)C(N)=O [compound 102] (Ac-Y[Dap]MPFRRFLEKWGLLR-NH2), the “MIC E. coli BW25113” value falls from 50.0 µM (≈ 92.1 µg/mL) to 25.0 µM (≈ 53.5 µg/mL) (2-fold).

Going from CSCC[C@H](NC(=O)[C@@H]1CCCCN1C(=O)[C@H](CCCNC(=N)N)NC(C)=O)C(=O)N[C@H](C(=O)N[C@@H](C)C(=O)N[C@@H](CCCNC(=N)N)C(=O)N[C@@H](CCCNC(=N)N)C(=O)N[C@@H](Cc1c[nH]c2ccccc12)C(=O)N[C@@H](CC(C)C)C(=O)N[C@@H](C)C(=O)N[C@@H](CCCCN)C(=O)N[C@@H](CCCNC(=N)N)C(=O)NCC(=O)N[C@@H](CC(C)C)C(N)=O)[C@@H](C)O [compound 221] (Ac-R[Pip]MTARRWLAKRGL-NH2) to CC(=O)N[C@@H](CCCNC(=N)N)C(=O)N1CCC[C@H]1C(=O)N[C@@H](CCc1ccccc1)C(=O)N[C@H](C(=O)N[C@@H](C)C(=O)N[C@@H](CCCNC(=N)N)C(=O)N[C@@H](CCCNC(=N)N)C(=O)N[C@@H](Cc1c[nH]c2ccccc12)C(=O)N[C@@H](CC(C)C)C(=O)N[C@@H](C)C(=O)N[C@@H](CCCCN)C(=O)N[C@@H](CCCNC(=N)N)C(=O)NCC(=O)N[C@@H](CC(C)C)C(N)=O)[C@@H](C)O [compound 222] (Ac-RP[hPhe]TARRWLAKRGL-NH2), the “MIC E. coli BW25113” value falls from 200.0 µM (≈ 353 µg/mL) to 12.5 µM (≈ 22.3 µg/mL) (16-fold).

First: Ac-RPMTWRRWLEKYGL-NH2 [compound 205]
Second: CSCC[C@H](NC(=O)[C@@H]1CCCN1C(=O)[C@H](CCCNC(=N)N)NC(C)=O)C(=O)N[C@H](C(=O)NC(C)(C)C(=O)N[C@@H](CCCNC(=N)N)C(=O)N[C@@H](CCCNC(=N)N)C(=O)N[C@@H](Cc1c[nH]c2ccccc12)C(=O)N[C@@H](CC(C)C)C(=O)N[C@@H](C)C(=O)N[C@@H](CCCCN)C(=O)N[C@@H](CCCNC(=N)N)C(=O)NCC(=O)N[C@@H](CC(C)C)C(N)=O)[C@@H](C)O [compound 220] (Ac-RPMT[Aib]RRWLAKRGL-NH2)
The “MIC E. coli BW25113” value of the first is 2-fold higher: 200.0 µM for the first, 100.0 µM (≈ 177 µg/mL) for the second.

For CSCC[C@H](NC(=O)[C@H](CN)NC(=O)[C@H](CCSC)NC(=O)[C@@H]1CCCN1C(=O)[C@H](CCCNC(=N)N)NC(C)=O)C(=O)N[C@@H](CCCNC(=N)N)C(=O)N[C@@H](CCCNC(=N)N)C(=O)N[C@@H](Cc1ccc(-c2ccccc2)cc1)C(=O)N[C@@H](CC(C)C)C(=O)N[C@@H](C)C(=O)N[C@@H](CCCCN)C(=O)N[C@@H](Cc1c[nH]c2ccccc12)C(=O)NCC(=O)N[C@@H](CC(C)C)C(N)=O [compound 217] (Ac-RPM[Dap]MRR[Bip]LAKWGL-NH2), the “MIC E. coli BW25113” value was 12.5 µM (≈ 23.3 µg/mL).

In the case of CSCC[C@H](NC(=O)[C@H](CN)NC(=O)[C@@H]1CCCN1C(=O)[C@H](Cc1ccc(O)cc1)NC(C)=O)C(=O)N[C@@H](Cc1ccccc1)C(=O)N[C@@H](CCCNC(=N)N)C(=O)N[C@@H](CCCNC(=N)N)C(=O)N[C@@H](Cc1ccccc1)C(=O)N[C@@H](CC(C)C)C(=O)N[C@@H](CCC(=O)O)C(=O)N[C@@H](CCCCN)C(=O)N[C@@H](Cc1c[nH]c2ccccc12)C(=O)NCC(=O)N[C@@H](CC(C)C)C(=O)N[C@@H](CC(C)C)C(=O)N[C@@H](CCCNC(=N)N)C(N)=O [compound 103] (Ac-YP[Dap]MFRRFLEKWGLLR-NH2), the “MIC E. coli BW25113” value is reported as under 12.5 µM.

Same assay, conditions: Table 8

First: CSCC[C@H](NC(=O)[C@H](CN)NC(=O)[C@H](CCSC)N(C)C(=O)[C@@H]1CCCN1C(=O)[C@H](Cc1ccc(O)cc1)NC(C)=O)C(=O)N[C@@H](CCCNC(=N)N)C(=O)N[C@@H](CCCNC(=N)N)C(=O)N[C@@H](Cc1ccccc1)C(=O)N[C@@H](CC(C)C)C(=O)N[C@@H](CCC(=O)O)C(=O)N[C@@H](CCCCN)C(=O)N[C@@H](Cc1c[nH]c2ccccc12)C(=O)NCC(=O)N[C@@H](CC(C)C)C(=O)N[C@@H](CC(C)C)C(=O)N[C@@H](CCCNC(=N)N)C(N)=O [compound 96] (Ac-YP[NMeM][Dap]MRRFLEKWGLLR-NH2)
Second: CSCC[C@@H](C(=O)N[C@@H](CCCNC(=N)N)C(=O)N[C@@H](CCCNC(=N)N)C(=O)N[C@@H](Cc1ccccc1)C(=O)N[C@@H](CC(C)C)C(=O)N[C@@H](CCC(=O)O)C(=O)N[C@@H](CCCCN)C(=O)N[C@@H](Cc1c[nH]c2ccccc12)C(=O)NCC(=O)N[C@@H](CC(C)C)C(=O)N[C@@H](CC(C)C)C(=O)N[C@@H](CCCNC(=N)N)C(N)=O)N(C)C(=O)[C@H](CN)NC(=O)[C@H](CCSC)N(C)C(=O)[C@@H]1CCCN1C(=O)[C@H](Cc1ccc(O)cc1)NC(C)=O [compound 98] (Ac-YP[NMeM][Dap][NMeM]RRFLEKWGLLR-NH2)
The “MIC E. coli BW25113” value of the first is 2-fold higher: 50.0 µM (≈ 107 µg/mL) for the first, 25.0 µM (≈ 53.8 µg/mL) for the second.

CSCC[C@H](NC(=O)[C@@H]1CCCN1C(=O)[C@H](Cc1ccc(O)cc1)NC(C)=O)C(=O)N[C@@H](Cc1ccccc1)C(=O)N[C@@H](CN)C(=O)N[C@@H](CCCNC(=N)N)C(=O)N[C@@H](CCCNC(=N)N)C(=O)N[C@@H](Cc1ccccc1)C(=O)N[C@@H](CC(C)C)C(=O)N[C@@H](CCC(=O)O)C(=O)N[C@@H](CCCCN)C(=O)N[C@@H](Cc1c[nH]c2ccccc12)C(=O)NCC(=O)N[C@@H](CC(C)C)C(=O)N[C@@H](CC(C)C)C(=O)N[C@@H](CCCNC(=N)N)C(N)=O [compound 104] (Ac-YPMF[Dap]RRFLEKWGLLR-NH2) and Ac-YPFTFRRFLEKWGLLR-NH2 [compound 79] are the same in “MIC E. coli BW25113” value: 200 µM (≈ 428 µg/mL) for the first, 200.0 µM for the second.

Going from CSCC[C@@H](C(=O)N[C@@H](CN)C(=O)N[C@@H](Cc1ccccc1)C(=O)N[C@@H](CCCNC(=N)N)C(=O)N[C@@H](CCCNC(=N)N)C(=O)N[C@@H](Cc1ccccc1)C(=O)N[C@@H](CC(C)C)C(=O)N[C@@H](CCC(=O)O)C(=O)N[C@@H](CCCCN)C(=O)N[C@@H](Cc1c[nH]c2ccccc12)C(=O)NCC(=O)N[C@@H](CC(C)C)C(=O)N[C@@H](CC(C)C)C(=O)N[C@@H](CCCNC(=N)N)C(N)=O)N(C)C(=O)[C@@H]1CCCN1C(=O)[C@H](Cc1ccc(O)cc1)NC(C)=O [compound 95] (Ac-YP[NMeM][Dap]FRRFLEKWGLLR-NH2) to Ac-RPMTWRRWLEKHGL-NH2 [compound 204], the “MIC E. coli BW25113” value rises from 50.0 µM (≈ 108 µg/mL) to 200.0 µM (4-fold).

CC(=O)N[C@@H](Cc1ccc(O)cc1)C(=O)N1CCC[C@H]1C(=O)N(C)[C@@H](Cc1ccccc1)C(=O)N[C@H](C(=O)N(C)[C@@H](C)C(=O)N[C@@H](CCCNC(=N)N)C(=O)N[C@@H](CCCNC(=N)N)C(=O)N[C@@H](Cc1ccccc1)C(=O)N[C@@H](CC(C)C)C(=O)N[C@@H](CCC(=O)O)C(=O)N[C@@H](CCCCN)C(=O)N[C@@H](Cc1c[nH]c2ccccc12)C(=O)NCC(=O)N[C@@H](CC(C)C)C(=O)N[C@@H](CC(C)C)C(=O)N[C@@H](CCCNC(=N)N)C(N)=O)[C@@H](C)O [compound 99] (Ac-YP[NMeF]T[NMeA]RRFLEKWGLLR-NH2) and CSCC[C@@H](C(=O)N[C@@H](CN)C(=O)N(C)[C@@H](C)C(=O)N[C@@H](CCCNC(=N)N)C(=O)N[C@@H](CCCNC(=N)N)C(=O)N[C@@H](Cc1ccccc1)C(=O)N[C@@H](CC(C)C)C(=O)N[C@@H](CCC(=O)O)C(=O)N[C@@H](CCCCN)C(=O)N[C@@H](Cc1c[nH]c2ccccc12)C(=O)NCC(=O)N[C@@H](CC(C)C)C(=O)N[C@@H](CC(C)C)C(=O)N[C@@H](CCCNC(=N)N)C(N)=O)N(C)C(=O)[C@@H]1CCCN1C(=O)[C@H](Cc1ccc(O)cc1)NC(C)=O [compound 97] (Ac-YP[NMeM][Dap][NMeA]RRFLEKWGLLR-NH2) are the same in “MIC E. coli BW25113” value: 200.0 µM (≈ 425 µg/mL) for the first, 200.0 µM (≈ 418 µg/mL) for the second.

CSCC[C@@H](C(=O)N[C@@H](CN)C(=O)N(C)[C@@H](Cc1ccccc1)C(=O)N[C@@H](CCCNC(=N)N)C(=O)N[C@@H](CCCNC(=N)N)C(=O)N[C@@H](Cc1ccccc1)C(=O)N[C@@H](CC(C)C)C(=O)N[C@@H](CCC(=O)O)C(=O)N[C@@H](CCCCN)C(=O)N[C@@H](Cc1c[nH]c2ccccc12)C(=O)NCC(=O)N[C@@H](CC(C)C)C(=O)N[C@@H](CC(C)C)C(=O)N[C@@H](CCCNC(=N)N)C(N)=O)N(C)C(=O)[C@@H]1CCCN1C(=O)[C@H](Cc1ccc(O)cc1)NC(C)=O [compound 100] (Ac-YP[NMeM][Dap][NMeF]RRFLEKWGLLR-NH2) was tested, and the “MIC E. coli BW25113” value was 25.0 µM (≈ 54.2 µg/mL).

In the case of Ac-YPMRFRRFLEKWGLLR-NH2 [compound 108], the “MIC E. coli BW25113” value is reported as under 12.5 µM.
